Measured values: the Kinase Knowledgebase extract (Sharma et al. 2016)

Biological target: PIK3CA (human) (UniProt P42336)
Assay: Inhibition of PIK3CA Kinase Activity

Sequence of PIK3CA (human) (P42336 whole entry, looked up): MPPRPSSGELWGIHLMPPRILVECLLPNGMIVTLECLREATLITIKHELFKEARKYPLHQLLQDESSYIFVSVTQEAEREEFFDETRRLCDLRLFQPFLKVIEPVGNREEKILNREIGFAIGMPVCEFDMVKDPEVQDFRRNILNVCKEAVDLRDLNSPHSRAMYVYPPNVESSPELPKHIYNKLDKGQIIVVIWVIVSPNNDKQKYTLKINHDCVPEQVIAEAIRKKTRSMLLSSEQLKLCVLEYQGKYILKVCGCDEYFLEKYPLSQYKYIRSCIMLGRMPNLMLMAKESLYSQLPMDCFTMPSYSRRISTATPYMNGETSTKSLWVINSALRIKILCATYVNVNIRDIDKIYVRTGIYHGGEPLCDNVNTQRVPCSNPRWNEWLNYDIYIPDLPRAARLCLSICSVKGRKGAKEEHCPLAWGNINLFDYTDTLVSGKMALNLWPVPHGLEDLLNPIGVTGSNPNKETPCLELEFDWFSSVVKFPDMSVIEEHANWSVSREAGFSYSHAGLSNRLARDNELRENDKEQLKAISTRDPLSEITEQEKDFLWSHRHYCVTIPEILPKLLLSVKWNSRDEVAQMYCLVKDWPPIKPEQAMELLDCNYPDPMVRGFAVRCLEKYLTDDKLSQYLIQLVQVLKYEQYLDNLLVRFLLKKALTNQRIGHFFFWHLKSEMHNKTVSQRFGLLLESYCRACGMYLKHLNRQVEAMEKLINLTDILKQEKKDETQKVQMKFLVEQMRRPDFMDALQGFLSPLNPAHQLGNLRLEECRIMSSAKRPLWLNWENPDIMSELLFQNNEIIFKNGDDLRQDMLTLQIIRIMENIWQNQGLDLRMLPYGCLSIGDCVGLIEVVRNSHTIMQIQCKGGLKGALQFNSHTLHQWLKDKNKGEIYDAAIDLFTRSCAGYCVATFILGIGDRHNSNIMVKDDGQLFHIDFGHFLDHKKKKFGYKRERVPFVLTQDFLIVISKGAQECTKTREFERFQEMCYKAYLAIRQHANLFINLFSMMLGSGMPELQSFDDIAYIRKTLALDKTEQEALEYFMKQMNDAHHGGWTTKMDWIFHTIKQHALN

| Compound | IC50 |
| --- | --- |
| CCC(C)n1c(S(C)(=O)=O)nc2c(-c3cccc(O)c3)nc(N3CCOCC3)nc21 (configuration not stated) | < 1000 nM |
| CCC(C)n1cnc2c(-c3cnc(NC)nc3)nc(N3CCOCC3)nc21 (configuration not stated) | < 1000 nM |
| CCN(CC)CCn1cnc2c(-c3cccc(O)c3)nc(N3CCOCC3)nc21 | < 1000 nM |
| O=C(Cn1cnc2c(-c3cccc(O)c3)nc(N3CCOCC3)nc21)N1CCOCC1 | < 1000 nM |
| COC(=O)c1ccc(Cn2cnc3c(-c4cccc(O)c4)nc(N4CCOCC4)nc32)cc1 | < 1000 nM |
| COCC(C)n1cnc2c(-c3cccc(O)c3)nc(N3CCOCC3)nc21 (configuration not stated) | < 1000 nM |
| CC(C)(C)OC(=O)N1CCC(n2cnc3c(-c4cccc5[nH]ccc45)nc(N4CCOCC4)nc32)C1 (configuration not stated) | < 1000 nM |
| c1ccc(Cn2cnc3c(-c4cncnc4)nc(N4CCOCC4)nc32)cc1 | < 1000 nM |
| Oc1cccc(-c2nc(N3CCOCC3)nc3[nH]c(Br)nc23)c1 | < 1000 nM |
| Cc1ccc(C(=O)N2CCC(n3cnc4c(-c5cnc(N)nc5)nc(N5CCOCC5)nc43)C2)s1 (configuration not stated) | < 1000 nM |
| Cc1nc(N)ncc1-c1nc(N2CCOCC2)nc2c1ncn2C(C)c1ccccc1 (configuration not stated) | < 1000 nM |
| COc1ccc(Cn2cnc3c(-c4cccc(O)c4)nc(N4CCOCC4)nc32)cc1 | < 1000 nM |
| CCSc1nc2c(-c3cccc(O)c3)nc(N3CCOCC3)nc2n1C(C)CC (configuration not stated) | < 1000 nM |
| C#CCn1cnc2c(-c3cccc(O)c3)nc(N3CCOCC3)nc21 | < 1000 nM |
| Nc1ccc(-c2nc(N3CCOCC3)nc3c2ncn3C2CCCC2)cn1 | < 1000 nM |
| COCC(C)n1cnc2c(-c3cnc(N)nc3C)nc(N3CCOCC3)nc21 (configuration not stated) | < 1000 nM |
| Oc1cc(F)cc(-c2nc(N3CCOCC3)nc3c2ncn3Cc2ccccc2)c1 | < 1000 nM |
| CC1CCC(n2cnc3c(-c4cnc(N)nc4)nc(N4CCOCC4)nc32)CC1 (configuration not stated) | < 1000 nM |
| C=CCCn1cnc2c(-c3cccc(O)c3)nc(N3CCOCC3)nc21 | < 1000 nM |
| CC(C)(C)Cn1cnc2c(-c3cnc(N)nc3)nc(N3CCOCC3)nc21 | < 1000 nM |
| Oc1cccc(-c2nc(N3CCOCC3)nc3c2ncn3CCN2CCCC2)c1 | < 1000 nM |
| CC1CCC(n2cnc3c(-c4cnc(N)nc4)nc(N4CCOCC4)nc32)C1 (configuration not stated) | < 1000 nM |
| Nc1ncc(-c2nc(N3CCOCC3)nc3c2ncn3C2CCc3ccccc3C2)cn1 (configuration not stated) | < 1000 nM |
| Oc1cccc(-c2nc(N3CCOCC3)nc3c2ncn3C2CCOC2)c1 (configuration not stated) | < 1000 nM |
| CC(=O)Nc1ccc(Cn2cnc3c(-c4cccc(O)c4)nc(N4CCOCC4)nc32)cc1 | < 1000 nM |
| CCCC(=O)N1CCC(n2cnc3c(-c4cnc(N)nc4)nc(N4CCOCC4)nc32)CC1 | < 1000 nM |

| Compound | IC50 |
| --- | --- |
| O=[N+]([O-])c1cccc(Cn2cnc3c(-c4cccc(O)c4)nc(N4CCOCC4)nc32)c1 | < 1000 nM |
| CCCCN1CCC(n2cnc3c(-c4cccc(O)c4)nc(N4CCOCC4)nc32)CC1 | < 1000 nM |
| CCC(C)n1cnc2c(-c3cnc(N)nc3OC)nc(N3CCOCC3)nc21 (configuration not stated) | < 1000 nM |
| CN1CCN(C(=O)Cn2cnc3c(-c4cccc(O)c4)nc(N4CCOCC4)nc32)CC1 | < 1000 nM |
| Oc1cccc(-c2nc(N3CCOCC3)nc3c2ncn3CC2CC2)c1 | < 1000 nM |
| CCC(C)n1c(Br)nc2c(-c3cccc(O)c3)nc(N3CCOCC3)nc21 (configuration not stated) | < 1000 nM |
| O=C(Cn1cnc2c(-c3cccc(O)c3)nc(N3CCOCC3)nc21)NC1CC1 | < 1000 nM |
| O=C(Cn1cnc2c(-c3cccc(O)c3)nc(N3CCOCC3)nc21)N1CCCC1 | < 1000 nM |
| Cc1nc(N)ncc1-c1nc(N2CCOCC2)nc2c1ncn2C(C)C1CC1 (configuration not stated) | < 1000 nM |
| CC(C)(C)OC(=O)N1CCC(n2cnc3c(-c4cccc(O)c4)nc(N4CCOCC4)nc32)CC1 | < 1000 nM |
| CCC(C)n1c(NCCOC)nc2c(-c3cccc(O)c3)nc(N3CCOCC3)nc21 (configuration not stated) | < 1000 nM |
| c1cc(-c2nc(N3CCOCC3)nc3c2ncn3CC2CCCCC2)c2cc[nH]c2c1 | < 1000 nM |
| c1nc2cc(-c3nc(N4CCOCC4)nc4c3ncn4CC3CC3)ccc2[nH]1 | < 1000 nM |
| c1cc(-c2nc(N3CCOCC3)nc3c2ncn3C2CCNCC2)c2cc[nH]c2c1 | < 1000 nM |
| CCc1nc2c(-c3cccc(O)c3)nc(N3CCOCC3)nc2n1C(C)CC (configuration not stated) | < 1000 nM |
| Nc1cccc(Cn2cnc3c(-c4cccc(O)c4)nc(N4CCOCC4)nc32)c1 | < 1000 nM |
| Oc1cccc(-c2nc(N3CCOCC3)nc3c2ncn3Cc2c(F)cccc2F)c1 | < 1000 nM |
| c1cc(-c2nc(N3CCOCC3)nc3c2ncn3C2CCOC2)c2cc[nH]c2c1 (configuration not stated) | < 1000 nM |
| COc1nc(N)ncc1-c1nc(N2CCOCC2)nc2c1ncn2C(C)C1CC1 (configuration not stated) | < 1000 nM |
| Nc1ccc(-c2nc(N3CCOCC3)nc3c2ncn3Cc2cccc([N+](=O)[O-])c2)cn1 | < 1000 nM |
| CC(c1ccccc1)n1cnc2c(-c3cccc(O)c3)nc(N3CCOCC3)nc21 (configuration not stated) | < 1000 nM |
| CCC(C#N)n1cnc2c(-c3cccc4[nH]ccc34)nc(N3CCOCC3)nc21 (configuration not stated) | < 1000 nM |
| Nc1ncc(-c2nc(N3CCOCC3)nc3c2ncn3C2Cc3ccccc3C2)cn1 | < 1000 nM |
| CCC(C)n1cnc2c(-c3cccc4[nH]ccc34)nc(N3CCOCC3)nc21 (configuration not stated) | < 1000 nM |
| CC(C)C(C)n1cnc2c(-c3ccc(N)nc3)nc(N3CCOCC3)nc21 (configuration not stated) | < 1000 nM |
| CCC(C)n1c(NCCN(C)C)nc2c(-c3cccc(O)c3)nc(N3CCOCC3)nc21 (configuration not stated) | < 1000 nM |
